Data: PubChem BioAssay AID2060892 (Molecular Pharmacology Branch, DTP, NCI, 2025)

Test system: HOP-62 complex spheroids with HUVEC/MSC, viability
Experiment: Anticancer human tumor HOP-62 cell line growth inhibition [RAS];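 further: spheroids exposed to agents for seven days before readout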;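 on viability, T/C: 100% = DMSO vehicle control viability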
Settings: for IC50: curve of first compound; for viability, T/C: stronger effect = lower value
How it was run: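 Agents were tested in combination matrices in half-log decrements from a top concentration at or near clinical Cmax (10 microM if undetermined). Targets were multi-cell spheroids of tumour lines plus HUVEC and MSC stromal cells.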

[1] = second compound 0.00316 µM, first compound 0.0316 µM
[2] = second compound 0.00316 µM, first compound 0.1 µM
[3] = second compound 0.00316 µM, first compound 0.316 µM
[4] = second compound 0.00316 µM, first compound 1 µM
[5] = second compound 0.00316 µM, first compound 3.16 µM
[6] = second compound 0.00316 µM, first compound 10 µM
[7] = second compound 0.01 µM, first compound 0.0316 µM
[8] = second compound 0.01 µM, first compound 0.1 µM
[9] = second compound 0.01 µM, first compound 0.316 µM
[10] = second compound 0.01 µM, first compound 1 µM
[11] = second compound 0.01 µM, first compound 3.16 µM
[12] = second compound 0.01 µM, first compound 10 µM
[13] = second compound 0.0316 µM, first compound 0.0316 µM
[14] = second compound 0.0316 µM, first compound 0.1 µM
[15] = second compound 0.0316 µM, first compound 0.316 µM
[16] = second compound 0.0316 µM, first compound 1 µM
[17] = second compound 0.0316 µM, first compound 3.16 µM
[18] = second compound 0.0316 µM, first compound 10 µM
[19] = second compound 0.1 µM, first compound 0.0316 µM
[20] = second compound 0.1 µM, first compound 0.1 µM
[21] = second compound 0.1 µM, first compound 0.316 µM
[22] = second compound 0.1 µM, first compound 1 µM
[23] = second compound 0.1 µM, first compound 3.16 µM
[24] = second compound 0.1 µM, first compound 10 µM
[25] = second compound 0.316 µM, first compound 0.0316 µM
[26] = second compound 0.316 µM, first compound 0.1 µM
[27] = second compound 0.316 µM, first compound 0.316 µM
[28] = second compound 0.316 µM, first compound 1 µM
[29] = second compound 0.316 µM, first compound 3.16 µM
[30] = second compound 0.316 µM, first compound 10 µM
[31] = second compound 1 µM, first compound 0.0316 µM
[32] = second compound 1 µM, first compound 0.1 µM
[33] = second compound 1 µM, first compound 0.316 µM
[34] = second compound 1 µM, first compound 1 µM
[35] = second compound 1 µM, first compound 3.16 µM
[36] = second compound 1 µM, first compound 10 µM

CC1(O)CCCC1n1c(=O)c(C(F)F)cc2cnc(NC3CCN(S(C)(=O)=O)CC3)nc21 (stereo not given) + C=CC(=O)N1CCN(c2nc(OCC3CCCN3C)nc3c(F)c(-c4nc(N)cc(C)c4C(F)(F)F)c(Cl)cc23)C(C)C1
IC50 (second compound 0.00316 µM): 140 nM | IC50 (second compound 0.01 µM): 94.8 nM | IC50 (second compound 0.0316 µM): 40.3 nM | IC50 (second compound 0.1 µM): 81.2 nM | IC50 (second compound 0.316 µM): < 31.6 nM | IC50 (second compound 1 µM): 55.7 nM | viability, T/C [1]: 64% | viability, T/C [2]: 47.8% | viability, T/C [3]: 38.4% | viability, T/C [4]: 35.6% | viability, T/C [5]: 32.3% | viability, T/C [6]: 1.76% | viability, T/C [7]: 66.3% | viability, T/C [8]: 43.9% | viability, T/C [9]: 28.7% | viability, T/C [10]: 34% | viability, T/C [11]: 27.7% | viability, T/C [12]: 0.91% | viability, T/C [13]: 55.5% | viability, T/C [14]: 39.8% | viability, T/C [15]: 29.9% | viability, T/C [16]: 28.3% | viability, T/C [17]: 22.9% | viability, T/C [18]: 0.75% | viability, T/C [19]: 66.5% | viability, T/C [20]: 40% | viability, T/C [21]: 30.1% | viability, T/C [22]: 30% | viability, T/C [23]: 29.5% | viability, T/C [24]: 0.8% | viability, T/C [25]: 53.6% | viability, T/C [26]: 37.6% | viability, T/C [27]: 30.6% | viability, T/C [28]: 32.6% | viability, T/C [29]: 21.9% | viability, T/C [30]: 0.96% | viability, T/C [31]: 59.4% | viability, T/C [32]: 39.4% | viability, T/C [33]: 29.9% | viability, T/C [34]: 27.2% | viability, T/C [35]: 25.7% | viability, T/C [36]: 1.08%

CCC(CC)c1cc(NC2CCC(N)C2)n2nccc2n1 (stereo not given) + C=CC(=O)N1CCN(c2nc(OCC3CCCN3C)nc3c(F)c(-c4nc(N)cc(C)c4C(F)(F)F)c(Cl)cc23)C(C)C1
IC50 (second compound 0.00316 µM): 1430 nM | IC50 (second compound 0.01 µM): 1320 nM | IC50 (second compound 0.0316 µM): 1450 nM | IC50 (second compound 0.1 µM): 1430 nM | IC50 (second compound 0.316 µM): 1360 nM | IC50 (second compound 1 µM): 1380 nM | viability, T/C [1]: 82.5% | viability, T/C [2]: 79.4% | viability, T/C [3]: 88.6% | viability, T/C [4]: 71.8% | viability, T/C [5]: 2.08% | viability, T/C [6]: 1.07% | viability, T/C [7]: 77.7% | viability, T/C [8]: 69.6% | viability, T/C [9]: 70.3% | viability, T/C [10]: 65.5% | viability, T/C [11]: 1.41% | viability, T/C [12]: 0.46% | viability, T/C [13]: 75.2% | viability, T/C [14]: 68.4% | viability, T/C [15]: 76.5% | viability, T/C [16]: 73.2% | viability, T/C [17]: 0.98% | viability, T/C [18]: 0.34% | viability, T/C [19]: 66.2% | viability, T/C [20]: 70.5% | viability, T/C [21]: 74.6% | viability, T/C [22]: 73.5% | viability, T/C [23]: 2.62% | viability, T/C [24]: 0.16% | viability, T/C [25]: 70.7% | viability, T/C [26]: 68.9% | viability, T/C [27]: 71.4% | viability, T/C [28]: 68.2% | viability, T/C [29]: 0.89% | viability, T/C [30]: 0.5% | viability, T/C [31]: 62.5% | viability, T/C [32]: 69.9% | viability, T/C [33]: 70.9% | viability, T/C [34]: 73.4% | viability, T/C [35]: 1.28% | viability, T/C [36]: 0.62%

CCN1CCN(Cc2ccc(Nc3ncc(F)c(-c4cc(F)c5nc(C)n(C(C)C)c5c4)n3)nc2)CC1 + C=CC(=O)N1CCN(c2nc(OCC3CCCN3C)nc3c(F)c(-c4nc(N)cc(C)c4C(F)(F)F)c(Cl)cc23)C(C)C1
IC50 (second compound 0.00316 µM): > 1000 nM | IC50 (second compound 0.01 µM): > 1000 nM | IC50 (second compound 0.0316 µM): 110 nM | IC50 (second compound 0.1 µM): > 1000 nM | IC50 (second compound 0.316 µM): 613 nM | IC50 (second compound 1 µM): > 1000 nM | viability, T/C (second compound 0.00316 µM, first compound 0.00316 µM): 87.7% | viability, T/C (second compound 0.00316 µM, first compound 0.01 µM): 84.1% | viability, T/C [1]: 69.2% | viability, T/C [2]: 73% | viability, T/C [3]: 64.8% | viability, T/C [4]: 55.5% | viability, T/C (second compound 0.01 µM, first compound 0.00316 µM): 71.5% | viability, T/C (second compound 0.01 µM, first compound 0.01 µM): 64.3% | viability, T/C [7]: 62.5% | viability, T/C [8]: 55.9% | viability, T/C [9]: 57.3% | viability, T/C [10]: 48.8% | viability, T/C (second compound 0.0316 µM, first compound 0.00316 µM): 72.2% | viability, T/C (second compound 0.0316 µM, first compound 0.01 µM): 74.3% | viability, T/C [13]: 59% | viability, T/C [14]: 52.8% | viability, T/C [15]: 47.6% | viability, T/C [16]: 46.9% | viability, T/C (second compound 0.1 µM, first compound 0.00316 µM): 69.7% | viability, T/C (second compound 0.1 µM, first compound 0.01 µM): 57.6% | viability, T/C [19]: 59.9% | viability, T/C [20]: 51.3% | viability, T/C [21]: 68.2% | viability, T/C [22]: 45.2% | viability, T/C (second compound 0.316 µM, first compound 0.00316 µM): 69% | viability, T/C (second compound 0.316 µM, first compound 0.01 µM): 70.6% | viability, T/C [25]: 68.8% | viability, T/C [26]: 50.2% | viability, T/C [27]: 58% | viability, T/C [28]: 46.8% | viability, T/C (second compound 1 µM, first compound 0.00316 µM): 66.7% | viability, T/C (second compound 1 µM, first compound 0.01 µM): 58.6% | viability, T/C [31]: 50.6% | viability, T/C [32]: 59.9% | viability, T/C [33]: 54.7% | viability, T/C [34]: 47.1%

C[C@@H](NC(=O)c1ncnc(N)c1Cl)c1ncc(C(=O)Nc2cc(C(F)(F)F)c(Cl)cn2)s1 + C=CC(=O)N1CCN(c2nc(OCC3CCCN3C)nc3c(F)c(-c4nc(N)cc(C)c4C(F)(F)F)c(Cl)cc23)C(C)C1
IC50 (second compound 0.00316 µM): > 10000 nM | IC50 (second compound 0.01 µM): 8690 nM | IC50 (second compound 0.0316 µM): 4320 nM | IC50 (second compound 0.1 µM): 7860 nM | IC50 (second compound 0.316 µM): > 10000 nM | IC50 (second compound 1 µM): > 10000 nM | viability, T/C [1]: 88.6% | viability, T/C [2]: 80.2% | viability, T/C [3]: 80.9% | viability, T/C [4]: 83.9% | viability, T/C [5]: 71.8% | viability, T/C [6]: 53.3% | viability, T/C [7]: 74.8% | viability, T/C [8]: 67% | viability, T/C [9]: 69.7% | viability, T/C [10]: 67.1% | viability, T/C [11]: 63.4% | viability, T/C [12]: 48.1% | viability, T/C [13]: 69.1% | viability, T/C [14]: 67% | viability, T/C [15]: 71.1% | viability, T/C [16]: 70% | viability, T/C [17]: 52.2% | viability, T/C [18]: 43.9% | viability, T/C [19]: 69.2% | viability, T/C [20]: 68.5% | viability, T/C [21]: 64% | viability, T/C [22]: 70.3% | viability, T/C [23]: 58% | viability, T/C [24]: 47.6% | viability, T/C [25]: 67.5% | viability, T/C [26]: 67% | viability, T/C [27]: 69.8% | viability, T/C [28]: 64.7% | viability, T/C [29]: 57.7% | viability, T/C [30]: 49.2% | viability, T/C [31]: 66.7% | viability, T/C [32]: 63.3% | viability, T/C [33]: 64.1% | viability, T/C [34]: 63.6% | viability, T/C [35]: 55.9% | viability, T/C [36]: 52.4%

Cc1nc(N2CCC3(CC2)COC(C)C3N)c(CO)nc1Sc1ccnc(N)c1Cl (stereo not given) + C=CC(=O)N1CCN(c2nc(OCC3CCCN3C)nc3c(F)c(-c4nc(N)cc(C)c4C(F)(F)F)c(Cl)cc23)C(C)C1
IC50 (second compound 0.00316 µM): 138 nM | IC50 (second compound 0.01 µM): 72 nM | IC50 (second compound 0.0316 µM): 43.9 nM | IC50 (second compound 0.1 µM): 52 nM | IC50 (second compound 0.316 µM): 56.7 nM | IC50 (second compound 1 µM): < 31.6 nM | viability, T/C [1]: 68.6% | viability, T/C [2]: 52.6% | viability, T/C [3]: 40.3% | viability, T/C [4]: 28.7% | viability, T/C [5]: 14.1% | viability, T/C [6]: 13.8% | viability, T/C [7]: 58.6% | viability, T/C [8]: 46.1% | viability, T/C [9]: 32.8% | viability, T/C [10]: 21.3% | viability, T/C [11]: 10.6% | viability, T/C [12]: 8.87% | viability, T/C [13]: 52% | viability, T/C [14]: 44.8% | viability, T/C [15]: 30.5% | viability, T/C [16]: 17.4% | viability, T/C [17]: 13.7% | viability, T/C [18]: 9.06% | viability, T/C [19]: 56.5% | viability, T/C [20]: 41.5% | viability, T/C [21]: 29.1% | viability, T/C [22]: 19.5% | viability, T/C [23]: 10.4% | viability, T/C [24]: 9.33% | viability, T/C [25]: 54.8% | viability, T/C [26]: 44.8% | viability, T/C [27]: 31.1% | viability, T/C [28]: 15.5% | viability, T/C [29]: 12.1% | viability, T/C [30]: 10.7% | viability, T/C [31]: 49.6% | viability, T/C [32]: 37.8% | viability, T/C [33]: 26.1% | viability, T/C [34]: 15.1% | viability, T/C [35]: 11.7% | viability, T/C [36]: 8.55%
